{"source": "patent US20140357512A1", "about": "“HISTONE DEACETYLASE (HDAC) BIOMARKERS IN MULTIPLE MYELOMA” (priority 2013, published 2014)", "system": "human myeloma cell line MM.1S", "test": "SILAC acetylated-lysine peptide profiling, HDAC inhibitor vs DMSO (light/heavy ratio)", "assay_type": "cell-based", "excerpt": "An embodiment of the invention comprises utilizing the SILAC method in order to quantitate changes in protein expression between two or more populations of cells. The SILAC method is a technique based on mass spectrometry that detects differences in protein abundance among samples using non-radioactive isotopic labeling. The SILAC method is known in the art, and described in detail in Ong et al., “Stable Isotope Labeling by Amino Acids in Cell Culture, SILAC, as a Simple and Accurate Approach to Expression Proteomics”, Molecular & Cellular Proteomics, vol. 1, pp. 376-386 (2002), which is incorporated herein by reference in its entirety.\nBriefly, the SILAC method involves growing two populations of cells in cell culture. The first population of cells is grown in growth media containing normal amino acids (“normal media”). The second population of cells is grown in media lacking a standard essential amino acid (such as lysine), but is then supplemented with a non-radioactive, isotopically labeled form of that essential amino acid (such as lysine labeled with ^13C atoms, rather than normal ^12C atoms), which is called “heavy media”. When the two populations of cells are each growing in the medium, they incorporate the amino acids into all of their proteins. The growth of cells maintained in the heavy media is no different from that in normal media. All peptides containing the heavy amino acids are heavier than their normal counterparts. The cells from each of the two populations of cells are lysed. The lysates from each of the two cell populations are then combined. The combined cell lysates are then analyzed by mass spectrometry. Pairs of chemically identical peptides of different stable isotope composition can be differentiated in a mass spectrometer due to their difference in mass. The ratio of peak intensities in the mass spectrum for such peptide pairs reflects the abundance ratio for the two proteins.\nThis example describes SILAC studies that were performed to compare the effects of three different HDAC inhibitors (Compound A, Compound B, and tubastatin A) to a control on a human multiple myeloma cell line. The HDAC inhibitors were also compared amongst themselves to determine differences in their effects.\nA human myeloma cell line MM.1S was grown using either ^12C (light) or ^13C (heavy) lysine containing culture medium. The “heavy” cells were treated with DMSO as the control, and the “light” cells were treated with a single HDAC inhibitor at 37° C. for 6 hours. The heavy and light cells were lysed, and the lysates were mixed in 1:1 ratio and digested with the protease trypsin. The acetylated lysine containing peptides (due to the action of the HDAC inhibitor) in the digested peptide pool were captured by a non-specific anti-acetylated lysine antibody cocktail (the antibodies identify both light and heavy acetylated peptides), and subjected to mass spectrometry analysis in order to identify thousands of individual peptides.\nThousands of peptides were identified in pairs (^12C and ^13C) due to their known mass differences. The amino acid sequence and quantitative ratio (Light/Heavy) of a given peptide in two differentially treated cell lysates were then determined and annotated with their possible protein (gene) sources.\nAs stated above, three HDAC inhibitors (Compound A, Compound B, and Tubastatin A) were used. Thus, the SILAC method was performed three times, with a different HDAC inhibitor compared to a control each time. Accordingly, there are three pairs of quantitative data in the table below, i.e., Compound A:DMSO, Compound B:DMSO, and Tubastatin A:DMSO. A cut-off of 1.30 fold of change (increase or decrease) was then used to determine “changed” or “+” in the table, and any peptides with a fold of change less than 1.3 fold were determined to be “unchanged” or “0” in the table. Those peptides that were not identified were marked as “NA” in the table. […]", "data": [{"smiles": "O=C(CCCCCCNC(=O)c1cnc(N(c2ccccc2)c2ccccc2)nc1)NO", "note": "[Compound A, 2-(diphenylamino)-N-(7-(hydroxyamino)-7-oxoheptyl)pyrimidine-5-carboxamide]", "values": [{"measurement": "light to heavy ratio (L/H ratio) of acetylated peptide MTDK(ac)CFR (SEQ ID NO: 573)", "setting": "Mitochondrial import inner membrane translocase subunit Tim13 [45], gene TIMM13, inhibitor:DMSO", "value": 0.42, "unit": "log 2"}, {"measurement": "light to heavy ratio (L/H ratio), log 2 scale, acetylated peptide YVK(ac)ALFR (SEQ ID NO: 771)", "setting": "Mitochondrial import receptor subunit TOM70 [188], gene TOMM70A, drug:DMSO", "value": 0.99}, {"measurement": "light to heavy ratio (L/H ratio) of acetylated peptide (ac)AEPVSPLK(ac)HFVLAK (SEQ ID NO: 508)", "setting": "Mitochondrial transmembrane GTPase FZO-2 [37], gene MFN1, inhibitor:DMSO", "value": "−0.63", "unit": "log 2"}, {"measurement": "light to heavy ratio (L/H ratio) of acetylated peptide LSLLSK(ac)FR (SEQ ID NO: 564)", "setting": "Mitochondrial trifunctional protein beta subunit (Fragment) [100], gene HADHB, inhibitor:DMSO", "value": 0.41, "unit": "log 2"}, {"measurement": "light to heavy ratio (L/H ratio) of acetylated peptide EIFQNEK(ac)R (SEQ ID NO: 288)", "setting": "NAD(P) transhydrogenase mitochondrial [70], NNT, drug:DMSO", "value": 0.64, "unit": "log 2"}, {"measurement": "light to heavy ratio (L/H ratio) of acetylated peptide AISPDK(ac)DNFYFDVK (SEQ ID NO: 284)", "setting": "NAD(P) transhydrogenase mitochondrial [403], NNT, drug:DMSO", "value": 0.61, "unit": "log 2"}, {"measurement": "L/H ratio of acetylated peptide", "setting": "NK(ac)WFFQK (SEQ ID NO: 498), 60S ribosomal protein L27 [128], RPL27", "value": "−0.86", "unit": "log 2"}, {"measurement": "L/H ratio of acetylated peptide", "setting": "NK(ac)YGDAFIR (SEQ ID NO: 496), U6 snRNA-associated Sm-like protein LSm6 [59], LSM6", "value": "−0.93", "unit": "log 2"}, {"measurement": "L/H ratio of acetylated peptide ADKDYHFK(ac)[…] (SEQ ID NO: 61)", "setting": "NPM1 [32], log 2 scale, drug vs DMSO", "value": 0.00}, {"measurement": "L/H ratio of acetylated peptide FINYVK(ac)NCFR (SEQ ID NO: 62)", "setting": "NPM1 [244], log 2 scale, drug vs DMSO", "value": 0.00}, {"measurement": "L/H ratio of acetylated peptide GVTQFGNK(ac)[…] (SEQ ID NO: 18)", "setting": "NUDT21 [23], log 2 scale, drug vs DMSO", "value": 1.00}, {"measurement": "light to heavy ratio (L/H ratio) of acetylated peptide FCLSK(ac)PGVYK (SEQ ID NO: 345)", "setting": "Nodal modulator 1 [630], NOMO3, NOMO1, drug:DMSO", "value": 0.00, "unit": "log 2"}, {"measurement": "light to heavy ratio (L/H ratio) of acetylated peptide […](ac)R (SEQ ID NO: 532)", "setting": "Nucleosome assembly protein 1-like 1 [116], gene NAP1L1, inhibitor:DMSO", "value": "−0.41", "unit": "log 2"}, {"measurement": "L/H ratio of acetylated peptide SGVGNVFIK(ac)NLDK (SEQ ID NO: 63)", "setting": "PABPC4 [104], log 2 scale, drug vs DMSO", "value": 0.00}, {"measurement": "L/H ratio of acetylated peptide […](ac)IFR (SEQ ID NO: 66)", "setting": "PDIA3 [104], log 2 scale, drug vs DMSO", "value": 0.00}, {"measurement": "L/H ratio of acetylated peptide PSHLTNK(ac)FEDK (SEQ ID NO: 65)", "setting": "PDIA3 [214], log 2 scale, drug vs DMSO", "value": 0.00}, {"measurement": "L/H ratio of acetylated peptide GEK(ac)FVMQEEFSR (SEQ ID NO: 64)", "setting": "PDIA3 [335], log 2 scale, drug vs DMSO", "value": 0.00}, {"measurement": "L/H ratio of acetylated peptide SLLGK(ac)DVLFLK (SEQ ID NO: 67)", "setting": "PGK1 [91], log 2 scale, drug vs DMSO", "value": 0.00}, {"measurement": "light to heavy ratio (L/H ratio) of acetylated peptide, log 2 scale", "setting": "PLISVYSEK(ac)GESSGK (SEQ ID NO: 247), 60S ribosomal protein L4 [14], RPL4", "value": "−0.54"}, {"measurement": "L/H ratio of acetylated peptide SIYGEK(ac)FEDENFILK (SEQ ID NO: 68)", "setting": "PPIA [82], log 2 scale, drug vs DMSO", "value": 0.00}, {"measurement": "L/H ratio of acetylated peptide VIFGLFGK(ac)TVPK (SEQ ID NO: 70)", "setting": "PPIB [67], log 2 scale, drug vs DMSO", "value": 0.00}, {"measurement": "L/H ratio of acetylated peptide TVPK(ac)[…] (SEQ ID NO: 69)", "setting": "PPIB [71], log 2 scale, drug vs DMSO", "value": 0.00}, {"measurement": "L/H ratio of acetylated peptide VIK(ac)[…] (SEQ ID NO: 71)", "setting": "PPIB [98], log 2 scale, drug vs DMSO", "value": 0.00}, {"measurement": "L/H ratio of acetylated peptide IYGFYDECK(ac)R (SEQ ID NO: 72)", "setting": "PPP1CC [141], log 2 scale, drug vs DMSO", "value": 0.00}, {"measurement": "light to heavy ratio (L/H ratio) of acetylated peptide TAWLDGK(ac)HVVFGK (SEQ ID NO: 592)", "setting": "Peptidyl-prolyl cis-trans isomerase B [165], gene PPIB, inhibitor:DMSO", "value": 0.44, "unit": "log 2"}, {"measurement": "light to heavy ratio (L/H ratio) of acetylated peptide FPDENFK(ac)LK (SEQ ID NO: 347)", "setting": "Peptidyl-prolyl cis-trans isomerase C [123], PPIC, drug:DMSO", "value": 0.00, "unit": "log 2"}, {"measurement": "light to heavy ratio (L/H ratio) of acetylated peptide HVVFGK(ac)VK (SEQ ID NO: 576)", "setting": "Peptidylprolyl isomerase A (Cyclophilin A) (PPIA) pseudogene [141], gene PPIAP26, inhibitor:DMSO", "value": 0.42, "unit": "log 2"}, {"measurement": "light to heavy ratio (L/H ratio) of acetylated peptide LAK(ac)YFFNK (SEQ ID NO: 604)", "setting": "Periodic tryptophan protein 2 homolog [279], gene PWP2, inhibitor:DMSO", "value": 0.46, "unit": "log 2"}, {"measurement": "light to heavy ratio (L/H ratio) of acetylated peptide AAWEHMK(ac)K (SEQ ID NO: 551)", "setting": "Peroxisomal multifunctional enzyme type 2 [139], gene HSD17B4, inhibitor:DMSO", "value": 0.39, "unit": "log 2"}, {"measurement": "light to heavy ratio (L/H ratio) of acetylated peptide FAK(ac)[…] (SEQ ID NO: 557)", "setting": "Peroxisomal multifunctional enzyme type 2 [565], gene HSD17B4, inhibitor:DMSO", "value": 0.40, "unit": "log 2"}, {"measurement": "light to heavy ratio (L/H ratio) of acetylated peptide […](ac)EALKK (SEQ ID NO: 619)", "setting": "Poly [ADP-ribose] polymerase 1 [192], gene PARP1, inhibitor:DMSO", "value": 0.48, "unit": "log 2"}, {"measurement": "light to heavy ratio (L/H ratio) of acetylated peptide […](ac)DELKK (SEQ ID NO: 346)", "setting": "Poly [ADP-ribose] polymerase 1 [249], PARP1, drug:DMSO", "value": 0.00, "unit": "log 2"}, {"measurement": "light to heavy ratio (L/H ratio) of acetylated peptide […](ac)NVLK (SEQ ID NO: 527)", "setting": "Pre-mRNA-processing-splicing factor 8 [2108], gene PRPF8, inhibitor:DMSO", "value": "−0.44", "unit": "log 2"}, {"measurement": "light to heavy ratio (L/H ratio) of acetylated peptide ALK(ac)YLVMDEADR (SEQ ID NO: 513)", "setting": "Probable ATP-dependent RNA helicase DDX47 [169], gene DDX47, inhibitor:DMSO", "value": "−0.58", "unit": "log 2"}, {"measurement": "light to heavy ratio (L/H ratio) of acetylated peptide (ac)AAK(ac)VFESIGK (SEQ ID NO: 277)", "setting": "Prohibitin [4], PHB, drug:DMSO", "value": 0.54, "unit": "log 2"}]}]}
